Source: patent publication US20220054494A1, “METHODS FOR TREATING BLADDER AND URETHRA DYSFUNCTION AND DISEASE” (University of Pittsburgh - Of the Commonwealth System of …, priority 2019, published 2022)
“Also recorded” adds a separate entry of the source.

What was measured:
Format in all cases: in vivo, rat
[1] = tested on: aged rats; assay: Von Frey testing of tactile sensitivity, aged rats
Description: Von Frey testing: Forty-eight hours after metabolism studies, tactile sensitivity was measured (once per week for the duration of the study) using von Frey nylon filaments applied to the suprapubic and plantar hindpaw (Stoelting Co., Wood Dale, Ill., USA). The median 50% withdrawal threshold (using up-down method) with positive responses are recorded as sharp retraction, licking/scratching, or vocalization.
Von Frey testing: Forty-eight h after the metabolism studies, tactile sensitivity was measured once per week using von Frey nylon filaments (Stoelting Co., Wood Dale, Ill., USA) applied to the suprapublic and plantar hindpaw. The median 50% withdrawal threshold (using an up-down method) with positive responses was recorded as sharp retraction, licking/scratching, or vocalization.
Von Frey Testing: Forty-eight hr after the metabolic cage studies, tactile sensitivity was measured once per week for the duration of the study using von Frey nylon filaments (Stoelting Co., Wood Dale, Ill., USA) applied to the suprapublic and plantar hindpaw. The withdrawal threshold (using up-down method) was determined, with positive responses defined as sharp retractions, licking/scratching, or vocalizations.

[2] = tested on: cleaved caspase 3; assay: Western immunoblotting, cleaved caspase 3; conditions: aged rats; oral 8-AG 5 mg/kg/day, 6 weeks
Description: Western immunoblotting: One half of each bladder preparation was homogenized using Lysing Matrix D in a FastPrep 24 instrument (MP Biomedicals, Solon, Ohio) in HBSS (5 mM KCl, 0.3 mM KH2PO4, 138 mM NaCl, 4 mM NaHO3, 0.3 mM Na2HCO3, 0.3 mM Na2HPO4, 5.6 mM glucose and 10 mM Hepes, pH 7.4) containing complete protease inhibitor cocktail (1 tablet/10 ml, ROCHE®, Indianapolis, Ind.)) and phosphatase inhibitor cocktail (SIGMA®, 1:100). After centrifugation (13000 rpm; 15 min at 4° C.), the membrane protein fraction was prepared by suspending the membrane pellets in lysis buffer containing 0.3 M NaCl, 50 mM Tris-HCl (pH 7.6) and 0.5% Triton X-100 and the same concentration of protease inhibitors as above. The suspensions were incubated on ice and centrifuged (13000 rpm; 15 min at 4° C.). The protein concentrations of the combined supernatants were determined using the PIERCE® BCA protein assay (THERMO SCIENTIFIC®, Rockford, Ill.). After denaturation (100° C. for 5 min) in the presence of Laemmli sample buffer, lysate from each sample was separated on a 4-15% TGX Stain-Free SDS-PAGE gel (BIO-RAD® Laboratories, Hercules, Calif.). As a loading control, total protein per sample was determined using Bio-Rad® Stain Free SDS-PAGE gel technology. UV-activated protein fluorescence was imaged on a CHEMIDOC® MP (BIO-RAD®). […] The volume (intensity) of each protein species was determined and normalized to total protein using Image Lab software (BIO-RAD®).

[3] = tested on: bladder blood flow; assay: Laser Doppler flowmeter bladder blood flow, aged rats; conditions: oral 8-AG 5 mg/kg/day, 6 weeks, compared with young rats
Source text: Vascular Changes: Bladders that had been perfused transcardially with PBS buffer containing 20 nm yellow-green fluorescent beads (THERMO FISHER®, F8787) to highlight the vasculature were fixed then cleared by removing lipids and dissolving light-absorbing chromophores within the tissue. Volumetric data were acquired using a Caliber ID RS-G4 ribbon scanning confocal microscope (NIKON® Inc, Tokyo, Japan), which can acquire large-area images (uses a high nA (1.0) long working distance (8 mm) with low magnification (20×)). This affords the advantage of interrogating whole tissues in a three-dimensional environment without the need to section. Real-time blood perfusion (1 mm3 tissue) was accomplished using a BLF22D laser Doppler flowmeter (Transonic Systems, Inc) with a surface probe (TypeS-APLPHS) applied to the serosal surface of the bladder (apex and neck) wall using Doppler light shift from moving RBCs to analyze flow by the Bonner algorithm. This method gives robust, non-invasive microvascular flow signals in the bladder wall of anesthetized rats.

[4] = aged Fischer 344 rats, oral 8-AG 5 mg/kg/day, 6 weeks
[5] = aged Fisher 344 rats, 8-AG 5 mg kg/day via drinking water, 1 month
[6] = aged rats, intravesical 100 μM 8-AG plus 10 μM DEA-NONOate, daily infusion 3-6 weeks

Which “abdominal response to tactile mechanical stimuli” value [1, 4] does the source give for `Nc1nc2[nH]c(N)nc2c(=O)[nH]1` [8-AG, 8-Aminoguanine] here?
Its value is “restored to a younger state”.

And the “somatic response to tactile mechanical stimuli” value [1, 4]?
Its value is “restored to a younger state”.

What about the “abdominal tactile mechanical sensitivity” value [1, 5] of the same molecule?
Its value is “restored to a younger state; also recorded: reversed”.

And the “somatic tactile mechanical sensitivity” value [1, 5]?
Its value is “restored to a younger state; also recorded: reversed”.

What about the “abdominal tactile mechanical sensitivity” value [1, 6] of the same molecule?
The value was “increase in sensitivity; also recorded: improves”.

And the “somatic tactile mechanical sensitivity” value [1, 6]?
The value was “increase in sensitivity; also recorded: improves”.

And the “EUS cleaved caspase 3” value [2]?
The value was “restored to a younger state”.

What about the “cleaved caspase 3 in bladder mucosa” value [2] of the same molecule?
Its value is “reversed or restored to levels similar to the younger state; also recorded: restored changes similar to a younger state”.

What about the “cleaved caspase 3 in detrusor smooth muscle” value [2] of the same molecule?
Its value is “levels similar to the younger state; also recorded: restored these biomarkers to that of a younger state”.

What about the “bladder blood flow (Doppler flowmeter)” value [3] of the same molecule?
The value was “no significant difference; also recorded: reversed to a younger state”.
